Test results from patent publication US20240246908A1 (ORION CORPORATION, priority 2021, published 2024).

System: YAP-TEAD
Assay: TEAD inhibition, Hippo Pathway TEAD Reporter MCF-7 luciferase assay
Type: cell-based
Conditions: Homo sapiens, MCF7, 24 h, Hippo Pathway TEAD Reporter MCF-7 cells, luciferase activity after 24 h; read-out: IC50 of the test compounds on YAP-TEAD inhibition (Group)
Description: TEAD inhibition was assayed using Hippo Pathway TEAD Reporter—MCF-7 cell line (BPS Bioscience, Catalog #: 60618) which contains firefly luciferase gene under the control of TEAD responsive elements. In the cell line, YAP1 remains in the nucleus inducing constitutive expression of luciferase reporter. Amount of expressed luciferase was detected using ONE-Glo Luciferase Assay System (Promega) and measuring plates with Enspire Multimode Plate Reader (PerkinElmer).
Hippo Pathway TEAD Reporter—MCF-7 cells were plated on white/clear Poly-D-Lysine coated 384 plates (Corning #356660) at the density of 8500 cells/well. Next day test compounds (11 concentrations with 4 replicates) and DMSO control (0.1%) were added to the plate. After 24 h cells were lysed and luciferase activity was measured. The half maximal inhibitory concentration (IC50) of the test compounds on YAP-TEAD inhibition was determined.

IC50 [nM]	Structure (SMILES)
50 to 300	COc1ccc(Nc2ccc(C(F)(F)F)cc2)cc1NC(=O)C1CCC(=O)N1C (centres unmarked) [Compound 74, N-(2-Methoxy-5-((4-(trifluoromethyl)phenyl)amino)phenyl)-1-methyl-5-oxo-pyrrolidine-2-carboxamide]
< 50	CN1C(=O)CCC1C(=O)Nc1cc(Oc2ccc(C(F)(F)F)cc2)ccc1F (centres unmarked) [Compound 75, N-(2-Fluoro-5-(4-(trifluoromethyl)phenoxy)phenyl)-1-methyl-5-oxopyrrolidine-2-carboxamide]
< 50	O=C1CCC(C(=O)Nc2cc(Oc3ccc(C(F)(F)F)cc3)ccc2F)N1 (centres unmarked) [Compound 76, N-(2-Fluoro-5-(4-(trifluoromethyl)phenoxy)phenyl)-5-oxopyrrolidine-2-carboxamide]
50 to 300	COc1ccc(Oc2cc(F)cc(F)c2)cc1NC(=O)C1CCC(=O)N1C(C)=O (centres unmarked) [Compound 77, 1-Acetyl-N-(5-(3,5-difluorophenoxy)-2-methoxyphenyl)-5-oxopyrrolidine-2-carboxamide]
50 to 300	COc1ccc(Oc2cc(F)cc(F)c2)cc1NC(=O)C1CCC(=O)N1C (centres unmarked) [Compound 78, N-(5-(3,5-Difluorophenoxy)-2-methoxyphenyl)-1-methyl-5-oxopyrrolidine-2-carboxamide]
301 to 2000	COc1ccc(Oc2cc(F)ccc2F)cc1NC(=O)C1CCC(=O)N1 (centres unmarked) [Compound 79, N-(5-(2,5-Difluorophenoxy)-2-methoxyphenyl)-5-oxopyrrolidine-2-carboxamide]
50 to 300	O=C1CCC2(C(=O)Nc3cc(Oc4ccc(C(F)(F)F)cc4)cc4c3OCCO4)CCCN12 (centres unmarked) [Compound 80, 3-Oxo-N-(7-(4-(trifluoromethyl)phenoxy)-2,3-dihydrobenzo[b][1,4]dioxin-5-yl)tetrahydro-1H-pyrrolizine-7a(5H)-carboxamide]
< 50	COc1ccc(Oc2ccc(C(F)(F)F)cc2)cc1NC(=O)C1CCC(=O)N1C(C)C (centres unmarked) [Compound 81, 1-Isopropyl-N-(2-methoxy-5-(4-(trifluoromethyl)phenoxy)phenyl)-5-oxo-pyrrolidine-2-carboxamide]
50 to 300	COc1ccc(Oc2ccc(F)c(F)c2)cc1NC(=O)C1CCC(=O)N1C(C)C (centres unmarked) [Compound 82, N-(5-(3,4-Difluorophenoxy)-2-methoxyphenyl)-1-isopropyl-5-oxopyrrolidine-2-carboxamide]
50 to 300	CN1C(=O)CCC1C(=O)Nc1cc(Oc2ccc(C(F)(F)F)cc2)ccc1-c1nnco1 (centres unmarked) [Compound 83, N-(2-(1,3,4-Oxadiazol-2-yl)-5-(4-(trifluoromethyl)phenoxy)phenyl)-1-methyl-5-oxopyrrolidine-2-carboxamide]
301 to 2000	CN1C(=O)CCC1C(=O)Nc1cc(Oc2cccc(C(F)(F)F)c2)ccc1-c1nnco1 (centres unmarked) [Compound 84, N-(2-(1,3,4-Oxadiazol-2-yl)-5-(3-(trifluoromethyl)phenoxy)phenyl)-1-methyl-5-oxopyrrolidine-2-carboxamide]
301 to 2000	CN1C(=O)CCC1C(=O)Nc1cc(Oc2ccc(F)c(F)c2)ccc1-c1ccn(C)n1 (centres unmarked) [Compound 85, N-(5-(3,4-Difluorophenoxy)-2-(1-methyl-1H-pyrazol-3-yl)phenyl)-1-methyl-5-oxopyrrolidine-2-carboxamide]
50 to 300	CN1C(=O)CCC1C(=O)Nc1cc(Oc2ccc(F)c(F)c2)ccc1-c1ccnn1C (centres unmarked) [Compound 86, N-(5-(3,4-Difluorophenoxy)-2-(1-methyl-1H-pyrazol-5-yl)phenyl)-1-methyl-5-oxopyrrolidine-2-carboxamide]
< 50	COc1ccc(Oc2ccc(C(F)(F)F)cc2)cc1NC(=O)C1COC(=O)N1C (centres unmarked) [Compound 87, N-(2-Methoxy-5-(4-(trifluoromethyl)phenoxy)phenyl)-3-methyl-2-oxo-oxazolidine-4-carboxamide]
< 50	COc1ccc(Oc2ccc(F)c(F)c2)cc1NC(=O)C1COC(=O)N1C (centres unmarked) [Compound 88, N-(5-(3,4-Difluorophenoxy)-2-methoxyphenyl)-3-methyl-2-oxooxazolidine-4-carboxamide]
50 to 300	COc1ccc(COc2ccc(F)c(F)c2)cc1NC(=O)C1COC(=O)N1C (centres unmarked) [Compound 89, N-(5-((3,4-Difluorophenoxy)methyl)-2-methoxyphenyl)-3-methyl-2-oxo-oxazolidine-4-carboxamide]
50 to 300	COc1ccc(COc2cccc(F)c2)cc1NC(=O)C1COC(=O)N1C (centres unmarked) [Compound 90, N-(5-((3-Fluorophenoxy)methyl)-2-methoxyphenyl)-3-methyl-2-oxo-oxazolidine-4-carboxamide]
< 50	COc1ccc(Oc2ccc(C(F)(F)F)cc2)cc1NC(=O)C1CCC(=S)N1C (centres unmarked) [Compound 91, N-(2-Methoxy-5-(4-(trifluoromethyl)phenoxy)phenyl)-1-methyl-5-thioxo-pyrrolidine-2-carboxamide]

IC50 [nM]	Structure (SMILES)
< 50	COc1ccc(Oc2ccc(C(F)(F)F)cc2)cc1NC(=O)C1CCC(=S)N1 (centres unmarked) [Compound 92, N-(2-Methoxy-5-(4-(trifluoromethyl)phenoxy)phenyl)-5-thioxopyrrolidine-2-carboxamide]
< 50	COc1ccc(Oc2ccc(F)c(F)c2)cc1NC(=O)[C@H]1CCC(=O)N1C [Compound 93, (R)—N-(5-(3,4-Difluorophenoxy)-2-methoxyphenyl)-1-methyl-5-oxopyrrolidine-2-carboxamide]
50 to 300	COc1ccc(Oc2ccc(F)c(F)c2)cc1NC(=O)[C@@H]1CCC(=O)N1C [Compound 94, (S)—N-(5-(3,4-Difluorophenoxy)-2-methoxyphenyl)-1-methyl-5-oxopyrrolidine-2-carboxamide]
50 to 300	COc1ccc(COc2ccc(F)c(F)c2)cc1NC(=O)C1CCC(=O)N1C (centres unmarked) [Compound 95, N-(5-((3,4-Difluorophenoxy)methyl)-2-methoxyphenyl)-1-methyl-5-oxo-pyrrolidine-2-carboxamide]
50 to 300	COc1ccc(OC2CC3CCC2C3)cc1NC(=O)C1CCC(=O)N1C (centres unmarked) [Compound 96, N-(5-(Bicyclo[2.2.1]heptan-2-yloxy)-2-methoxyphenyl)-1-methyl-5-oxo-pyrrolidine-2-carboxamide]
< 50	CN1C(=O)CC[C@@H]1C(=O)Nc1cc(Oc2ccc(F)c(F)c2)cc2c1OCCO2 [Compound 97, (R)—N-(7-(3,4-Difluorophenoxy)-2,3-dihydrobenzo[b][1,4]dioxin-5-yl)-1-methyl-5-oxopyrrolidine-2-carboxamide]
50 to 300	CN1C(=O)CC[C@H]1C(=O)Nc1cc(Oc2ccc(F)c(F)c2)cc2c1OCCO2 [Compound 98, (S)—N-(7-(3,4-Difluorophenoxy)-2,3-dihydrobenzo[b][1,4]dioxin-5-yl)-1-methyl-5-oxopyrrolidine-2-carboxamide]
< 50	CN1C(=O)CC[C@@H]1C(=O)Nc1cc(Oc2ccc(C(F)(F)F)cc2)cc2c1OCC2 [Compound 99, (R)-1-Methyl-5-oxo-N-(5-(4-(trifluoromethyl)phenoxy)-2,3-dihydrobenzofuran-7-yl)pyrrolidine-2-carboxamide]
< 50	CN1C(=O)CC[C@H]1C(=O)Nc1cc(Oc2ccc(F)c(F)c2)cc2c1OCC2 [Compound 100, (S)—N-(5-(3,4-Difluorophenoxy)-2,3-dihydrobenzofuran-7-yl)-1-methyl-5-oxopyrrolidine-2-carboxamide]
< 50	COc1ccc(Oc2ccc(C(F)(F)F)cc2)cc1NC(=O)[C@H]1COC(=O)N1C [Compound 101, (R)—N-(2-Methoxy-5-(4-(trifluoromethyl)phenoxy)phenyl)-3-methyl-2-oxooxazolidine-4-carboxamide]
< 50	COc1ccc(Oc2ccc(C(F)(F)F)cc2)cc1NC(=O)[C@@H]1COC(=O)N1C [Compound 102, (S)—N-(2-Methoxy-5-(4-(trifluoromethyl)phenoxy)phenyl)-3-methyl-2-oxooxazolidine-4-carboxamide]
< 50	COc1ccc(O[C@H]2CC[C@H](C(F)(F)F)CC2)cc1NC(=O)[C@H]1CCC(=O)N1C [Compound 103, (R)—N-(2-Methoxy-5-(((trans)-4-(trifluoromethyl)cyclohexyl)oxy)phenyl)-1-methyl-5-oxopyrrolidine-2-carboxamide]
50 to 300	COc1ccc(OC2CCC(F)(F)CC2)cc1NC(=O)C1COC(=O)N1C (centres unmarked) [Compound 104, N-(5-((4,4-Difluorocyclohexyl)oxy)-2-methoxyphenyl)-3-methyl-2-oxo-oxazolidine-4-carboxamide]
< 50	COc1ccc(O[C@H]2CC[C@H](C(F)(F)F)CC2)cc1NC(=O)[C@@H]1CCC(=O)N1C [Compound 105, (S)—N-(2-Methoxy-5-(((trans)-4-(trifluoromethyl)cyclohexyl)oxy)phenyl)-1-methyl-5-oxopyrrolidine-2-carboxamide]
301 to 2000	CN1C(=O)CCC1C(=O)Nc1cc(Oc2cccc(C(F)(F)F)c2)cc2c1NC(=O)CO2 (centres unmarked) [Compound 106, 1-Methyl-5-oxo-N-(3-oxo-7-(3-(trifluoromethyl)phenoxy)-3,4-dihydro-2H-benzo[b][1,4]oxazin-5-yl)pyrrolidine-2-carboxamide]
< 50	CN1C(=O)CC[C@H]1C(=O)Nc1cc(O[C@H]2CC[C@@H](C(F)(F)F)CC2)cc2c1OCC2 [Compound 107, (S)-1-Methyl-5-oxo-N-(5-(((cis)-4-(trifluoromethyl)cyclohexyl)oxy)-2,3-dihydrobenzofuran-7-yl)pyrrolidine-2-carboxamide]
50 to 300	CN1C(=O)CC[C@@H]1C(=O)Nc1cc(O[C@H]2CC[C@@H](C(F)(F)F)CC2)cc2c1OCC2 [Compound 108, (R)-1-Methyl-5-oxo-N-(5-(((cis)-4-(trifluoromethyl)cyclohexyl)oxy)-2,3-dihydrobenzofuran-7-yl)pyrrolidine-2-carboxamide]
